According to patent EP0684822B1, “CARBOCYCLIC DEOXYGUANOSINE ANALOGS FOR THE TREATMENT OF VIRAL INFECTIONS” (SOUTHERN RESEARCH INSTITUTE, priority 1993, dated 1994):

What was measured:
DNA polymerase α = biological target: T1, DNA polymerase α (Homo sapiens, UniProt P09884); experiment: Inhibition of [3H]dGTP incorporation into DNA by host DNA polymerase α; assay type: biochemical; settings: for IC50: incorporation of 1 µM [3H]dGTP into DNA
T1 construct: Human DNA polymerases, a, β, and γ, were purified from 5.0 ml of packed K562 cells; endogenous in cells; host or cells: K562 cells
Protocol: (§1) HSV DNA polymerase was purified from H.Ep.-2 cells infected with HSV-1. Approximately 4 x 10^8 cells were infected with virus at a multiplicity of infection of 10 CCID50/cell. After a 1 hr adsorption period, the unattached virus was waxhed from the cells and the cultures were returned to the incubator at 37°C for another 8 hr. The cells were collected by centrifugation and mixed with a 0.3 M potassium phosphate buffer, pH 7.5, containing 0.3% Triton X-100 and 10% glycerol. The HSV DNA polymerase was purified approximately 288-fold from this crude extract, as described by Derse et al. (J. Biol. Chem. 257:10251, 1982). The specific activity of the HSV DNA polymerase was 4140 units/mg protein. Human DNA polymerases, a, β, and γ, were purified from 5.0 ml of packed K562 cells grown in cell culture as previously described (Parker et al., J. Biol. Chem. 266:1754, 1991). The specific activities of DNA polymerases α, β, and γ used in these studies were approximately 34, 1600, and 8 units/mg protein, respectively. One unit of enzyme activity is defined as the amount of enzyme needed to incorporate 1 nmol of [^3H]dGTP into acid-precipitable material per hour at 37°C, using gapped DNA as a template. HSV DNA polymerase activity was measured in 50 µl volumes containing 50 mM Tris, pH 8.0, 3 mM MgCl2, 0.5 mM dithiothreitol, 0.2 mg/ml bovine serum albumin, 0.2 M KCl, 12.5 µg/ml gapped DNA, 10 µM [^3H]dGTP (12 Ci/mmol), and 100 µM each of dATP, dCTP, and TTP. DNA polymerase α activity was measured in 50 µl volumes containing 50 mM Tris, pH 8.0, 1 mg/ml bovine serum albumin, 10 mM MgCl2, 1 mM dithiothreitol, 100 µg/ml gapped duplex DNA, 10 µM [^3H]dGTP (1 Ci/mmol), and 50 µM of each dATP, dCTP and TTP. DNA polymerase β and γ activities were measured as described for DNA polymerase α, except that the reactions included 100 mM KCl. After incubation for the desired time, the DNA in each sample was precipitated onto glass fiber filters using a 5% trichloroacetic acid solution containing 10 mM pyrophosphate. The filters were then washed three times with this solution followed by two washes with 95% ethanol, dried, and counted for radioactivity.
(§2) 2'CdG-TP was a potent competitive inhibitor of the incorporation of [^3H]dGTP into DNA by both the HSV DNA polymerase and the host DNA polymerase α (Fig. 9).
(§3) Under similar incubation conditions, the concentration of D-2'CdG-TP required to inhibit the incorporation of 1 µM [^3H]dGTP into the DNA by 50% was 2 µM with DNA polymerase a, but was 2200 and 300 µM for DNA polymerase β and γ, respectively (Table 4). […]

DNA polymerase γ = biological target: T2, DNA polymerase γ (Homo sapiens, UniProt P54098); experiment: Inhibition of [3H]dGTP incorporation into DNA by DNA polymerase γ; assay type: biochemical; settings: incorporation of 1 µM [3H]dGTP into DNA
T2 sequence (P54098 26-1239): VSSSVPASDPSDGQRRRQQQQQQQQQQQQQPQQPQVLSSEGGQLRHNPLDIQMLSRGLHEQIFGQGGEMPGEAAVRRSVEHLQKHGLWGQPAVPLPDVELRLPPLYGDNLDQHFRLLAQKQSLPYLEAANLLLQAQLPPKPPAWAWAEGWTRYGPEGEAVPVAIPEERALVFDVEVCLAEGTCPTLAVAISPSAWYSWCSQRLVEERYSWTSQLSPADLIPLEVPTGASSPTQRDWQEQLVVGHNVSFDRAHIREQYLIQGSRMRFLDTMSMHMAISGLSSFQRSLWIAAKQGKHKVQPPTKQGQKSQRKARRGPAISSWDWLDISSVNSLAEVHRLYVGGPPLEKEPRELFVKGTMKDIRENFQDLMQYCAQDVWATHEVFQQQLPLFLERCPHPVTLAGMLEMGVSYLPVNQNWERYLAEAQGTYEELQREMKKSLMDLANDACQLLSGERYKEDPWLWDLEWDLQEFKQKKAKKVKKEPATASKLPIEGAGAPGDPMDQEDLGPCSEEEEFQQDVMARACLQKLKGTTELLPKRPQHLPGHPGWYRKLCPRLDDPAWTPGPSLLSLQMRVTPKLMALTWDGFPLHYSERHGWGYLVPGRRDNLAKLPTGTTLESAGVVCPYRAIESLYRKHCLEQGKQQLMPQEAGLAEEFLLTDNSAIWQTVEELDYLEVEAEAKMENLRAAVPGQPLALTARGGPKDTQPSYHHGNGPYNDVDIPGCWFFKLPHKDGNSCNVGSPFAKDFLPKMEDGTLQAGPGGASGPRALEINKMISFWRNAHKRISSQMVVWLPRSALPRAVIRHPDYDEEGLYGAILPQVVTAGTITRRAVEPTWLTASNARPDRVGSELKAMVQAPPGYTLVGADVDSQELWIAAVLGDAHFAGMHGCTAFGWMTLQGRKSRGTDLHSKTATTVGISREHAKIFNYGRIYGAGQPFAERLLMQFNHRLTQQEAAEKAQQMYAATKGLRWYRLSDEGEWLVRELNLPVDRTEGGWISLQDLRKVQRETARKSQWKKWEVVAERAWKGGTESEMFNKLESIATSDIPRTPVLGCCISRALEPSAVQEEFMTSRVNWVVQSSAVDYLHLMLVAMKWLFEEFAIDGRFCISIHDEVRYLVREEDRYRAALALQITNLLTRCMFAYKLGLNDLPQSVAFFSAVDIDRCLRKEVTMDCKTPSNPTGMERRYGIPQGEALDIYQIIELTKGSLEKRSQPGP
T2 sequence (Q9UHN1 26-485 partner): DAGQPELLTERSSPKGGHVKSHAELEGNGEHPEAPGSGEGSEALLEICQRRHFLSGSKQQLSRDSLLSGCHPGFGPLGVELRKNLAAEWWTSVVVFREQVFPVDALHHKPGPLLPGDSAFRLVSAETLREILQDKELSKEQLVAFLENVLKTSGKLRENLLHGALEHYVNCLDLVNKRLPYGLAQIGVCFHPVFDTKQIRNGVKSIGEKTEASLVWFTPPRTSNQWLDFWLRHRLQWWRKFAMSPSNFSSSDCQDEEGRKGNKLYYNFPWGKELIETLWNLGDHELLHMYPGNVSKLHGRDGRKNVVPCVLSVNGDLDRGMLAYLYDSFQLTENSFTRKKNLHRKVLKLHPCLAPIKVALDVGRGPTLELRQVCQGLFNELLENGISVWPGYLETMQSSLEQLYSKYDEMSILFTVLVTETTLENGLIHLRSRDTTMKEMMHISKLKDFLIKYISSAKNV
Protocol: (§4) HSV DNA polymerase was purified from H.Ep.-2 cells infected with HSV-1. Approximately 4 x 10^8 cells were infected with virus at a multiplicity of infection of 10 CCID50/cell. After a 1 hr adsorption period, the unattached virus was waxhed from the cells and the cultures were returned to the incubator at 37°C for another 8 hr. The cells were collected by centrifugation and mixed with a 0.3 M potassium phosphate buffer, pH 7.5, containing 0.3% Triton X-100 and 10% glycerol. The HSV DNA polymerase was purified approximately 288-fold from this crude extract, as described by Derse et al. (J. Biol. Chem. 257:10251, 1982). The specific activity of the HSV DNA polymerase was 4140 units/mg protein. […] HSV DNA polymerase activity was measured in 50 µl volumes containing 50 mM Tris, pH 8.0, 3 mM MgCl2, 0.5 mM dithiothreitol, 0.2 mg/ml bovine serum albumin, 0.2 M KCl, 12.5 µg/ml gapped DNA, 10 µM [^3H]dGTP (12 Ci/mmol), and 100 µM each of dATP, dCTP, and TTP. DNA polymerase α activity was measured in 50 µl volumes containing 50 mM Tris, pH 8.0, 1 mg/ml bovine serum albumin, 10 mM MgCl2, 1 mM dithiothreitol, 100 µg/ml gapped duplex DNA, 10 µM [^3H]dGTP (1 Ci/mmol), and 50 µM of each dATP, dCTP and TTP. DNA polymerase β and γ activities were measured as described for DNA polymerase α, except that the reactions included 100 mM KCl. […]

HSV DNA polymerase = biological target: T3, HSV DNA polymerase (Human herpesvirus 1, UniProt P04293); experiment: Inhibition of [3H]dGTP incorporation into DNA by purified HSV DNA polymerase; assay type: biochemical, HSV-1; settings: for IC50: incorporation of 1 µM [3H]dGTP into DNA
T3 construct: HSV DNA polymerase was purified from H.Ep.-2 cells infected with HSV-1; made in house; host or cells: H.Ep.-2 cells infected with HSV-1
Protocol: as §1, §2, §3

DNA polymerase β = biological target: T4, DNA polymerase β (Homo sapiens, UniProt P06746); experiment: Inhibition of [3H]dGTP incorporation into DNA by DNA polymerase β; assay type: biochemical; settings: incorporation of 1 µM [3H]dGTP into DNA
T4 construct: Human DNA polymerases, a, β, and γ, were purified from 5.0 ml of packed K562 cells; endogenous in cells; host or cells: K562 cells
Protocol: as §4

T3 sequence (P10226 whole entry): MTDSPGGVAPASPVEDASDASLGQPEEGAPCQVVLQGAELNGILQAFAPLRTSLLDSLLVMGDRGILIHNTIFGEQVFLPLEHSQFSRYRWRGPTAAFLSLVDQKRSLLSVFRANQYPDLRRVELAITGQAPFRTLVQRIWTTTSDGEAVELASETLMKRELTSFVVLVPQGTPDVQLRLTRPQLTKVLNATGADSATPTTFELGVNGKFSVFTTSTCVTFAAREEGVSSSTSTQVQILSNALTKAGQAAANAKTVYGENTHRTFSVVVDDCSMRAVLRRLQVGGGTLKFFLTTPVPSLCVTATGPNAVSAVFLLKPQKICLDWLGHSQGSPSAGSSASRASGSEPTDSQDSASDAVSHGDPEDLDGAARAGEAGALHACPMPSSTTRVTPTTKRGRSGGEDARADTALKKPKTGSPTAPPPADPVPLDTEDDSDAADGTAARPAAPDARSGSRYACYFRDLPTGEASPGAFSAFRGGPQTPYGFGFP
T3 sequence (P04293 whole entry): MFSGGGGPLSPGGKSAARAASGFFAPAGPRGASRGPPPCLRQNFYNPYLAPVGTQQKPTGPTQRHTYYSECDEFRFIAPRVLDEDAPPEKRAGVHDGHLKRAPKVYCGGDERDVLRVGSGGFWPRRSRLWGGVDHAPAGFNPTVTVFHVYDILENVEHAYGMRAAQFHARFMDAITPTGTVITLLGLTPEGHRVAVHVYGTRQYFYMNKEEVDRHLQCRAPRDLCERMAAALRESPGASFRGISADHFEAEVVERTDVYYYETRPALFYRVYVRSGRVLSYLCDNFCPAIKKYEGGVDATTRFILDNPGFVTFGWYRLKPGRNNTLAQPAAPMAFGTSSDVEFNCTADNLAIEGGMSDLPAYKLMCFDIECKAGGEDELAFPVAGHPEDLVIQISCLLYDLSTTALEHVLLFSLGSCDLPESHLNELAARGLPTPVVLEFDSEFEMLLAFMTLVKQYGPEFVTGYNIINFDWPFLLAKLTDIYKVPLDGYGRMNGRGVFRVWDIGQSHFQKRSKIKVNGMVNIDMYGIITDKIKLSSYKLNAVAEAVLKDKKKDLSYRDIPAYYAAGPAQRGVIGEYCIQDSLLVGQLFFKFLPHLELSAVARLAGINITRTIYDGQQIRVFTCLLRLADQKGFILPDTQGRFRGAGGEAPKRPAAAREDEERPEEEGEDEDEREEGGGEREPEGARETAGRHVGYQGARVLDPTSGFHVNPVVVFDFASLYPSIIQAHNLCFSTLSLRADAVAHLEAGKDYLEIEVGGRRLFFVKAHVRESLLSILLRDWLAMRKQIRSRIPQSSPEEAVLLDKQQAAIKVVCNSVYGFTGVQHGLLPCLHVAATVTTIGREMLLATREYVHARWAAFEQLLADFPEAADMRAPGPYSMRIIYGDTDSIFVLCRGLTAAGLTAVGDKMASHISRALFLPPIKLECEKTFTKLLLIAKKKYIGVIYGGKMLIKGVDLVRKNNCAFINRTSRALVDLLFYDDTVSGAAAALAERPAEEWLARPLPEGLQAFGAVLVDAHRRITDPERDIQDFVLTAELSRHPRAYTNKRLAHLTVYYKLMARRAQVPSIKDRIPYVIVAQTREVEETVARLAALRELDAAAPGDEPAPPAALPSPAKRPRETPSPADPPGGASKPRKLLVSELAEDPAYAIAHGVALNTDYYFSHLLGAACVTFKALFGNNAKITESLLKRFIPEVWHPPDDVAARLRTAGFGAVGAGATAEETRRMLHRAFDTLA
T1 sequence (P09884 whole entry): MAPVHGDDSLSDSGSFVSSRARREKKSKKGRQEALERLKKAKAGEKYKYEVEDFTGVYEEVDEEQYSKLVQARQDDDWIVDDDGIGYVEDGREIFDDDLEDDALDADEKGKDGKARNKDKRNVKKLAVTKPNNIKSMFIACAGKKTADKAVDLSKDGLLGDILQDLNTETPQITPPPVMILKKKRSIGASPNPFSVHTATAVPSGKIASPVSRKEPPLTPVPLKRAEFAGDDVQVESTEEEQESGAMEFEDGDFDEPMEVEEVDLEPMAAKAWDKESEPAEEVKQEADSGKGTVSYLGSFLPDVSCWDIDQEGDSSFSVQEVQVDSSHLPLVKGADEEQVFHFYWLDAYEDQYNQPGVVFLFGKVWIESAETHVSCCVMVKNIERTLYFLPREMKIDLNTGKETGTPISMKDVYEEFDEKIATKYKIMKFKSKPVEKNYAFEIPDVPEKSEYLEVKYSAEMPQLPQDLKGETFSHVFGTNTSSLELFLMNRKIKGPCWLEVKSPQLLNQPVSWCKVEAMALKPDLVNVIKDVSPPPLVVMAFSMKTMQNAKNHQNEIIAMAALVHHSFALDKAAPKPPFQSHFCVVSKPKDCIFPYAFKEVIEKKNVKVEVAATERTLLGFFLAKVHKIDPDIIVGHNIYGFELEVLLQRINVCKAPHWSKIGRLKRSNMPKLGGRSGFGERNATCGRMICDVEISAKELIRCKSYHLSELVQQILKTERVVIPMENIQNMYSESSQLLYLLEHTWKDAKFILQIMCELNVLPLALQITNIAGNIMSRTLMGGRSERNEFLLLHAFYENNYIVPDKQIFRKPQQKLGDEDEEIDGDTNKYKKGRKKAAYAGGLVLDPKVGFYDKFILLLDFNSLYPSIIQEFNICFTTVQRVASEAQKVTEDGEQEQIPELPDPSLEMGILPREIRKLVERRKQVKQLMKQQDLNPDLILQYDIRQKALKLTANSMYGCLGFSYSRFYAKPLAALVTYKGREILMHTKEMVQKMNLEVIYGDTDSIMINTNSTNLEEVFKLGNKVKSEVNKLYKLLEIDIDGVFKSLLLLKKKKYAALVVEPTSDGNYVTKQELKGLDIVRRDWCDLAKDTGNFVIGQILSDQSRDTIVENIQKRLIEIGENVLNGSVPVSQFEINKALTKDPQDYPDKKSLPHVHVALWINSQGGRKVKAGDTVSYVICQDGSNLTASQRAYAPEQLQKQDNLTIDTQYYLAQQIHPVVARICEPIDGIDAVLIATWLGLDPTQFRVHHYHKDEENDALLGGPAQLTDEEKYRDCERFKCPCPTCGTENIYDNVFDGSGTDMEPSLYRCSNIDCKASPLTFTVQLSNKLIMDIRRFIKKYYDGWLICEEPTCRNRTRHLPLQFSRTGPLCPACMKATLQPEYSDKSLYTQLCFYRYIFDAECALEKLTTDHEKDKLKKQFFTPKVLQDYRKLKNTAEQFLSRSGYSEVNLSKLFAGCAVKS
T1 sequence (Q14181 whole entry partner): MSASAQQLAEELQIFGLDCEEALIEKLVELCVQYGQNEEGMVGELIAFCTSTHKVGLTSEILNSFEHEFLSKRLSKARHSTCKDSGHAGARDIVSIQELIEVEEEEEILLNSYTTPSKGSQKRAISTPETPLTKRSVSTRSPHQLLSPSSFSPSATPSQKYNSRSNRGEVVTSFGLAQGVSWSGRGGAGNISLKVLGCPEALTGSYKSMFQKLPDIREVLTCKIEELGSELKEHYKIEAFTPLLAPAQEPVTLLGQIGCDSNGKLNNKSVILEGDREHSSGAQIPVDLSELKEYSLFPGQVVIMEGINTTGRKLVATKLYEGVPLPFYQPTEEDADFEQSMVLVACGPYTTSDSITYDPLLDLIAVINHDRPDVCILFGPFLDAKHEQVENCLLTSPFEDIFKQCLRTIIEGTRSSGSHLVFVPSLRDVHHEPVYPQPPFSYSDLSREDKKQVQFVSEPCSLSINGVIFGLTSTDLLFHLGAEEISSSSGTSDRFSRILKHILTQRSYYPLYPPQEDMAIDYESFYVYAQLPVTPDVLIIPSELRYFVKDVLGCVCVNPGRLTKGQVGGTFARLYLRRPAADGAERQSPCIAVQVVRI
T1 sequence (P49642 whole entry partner): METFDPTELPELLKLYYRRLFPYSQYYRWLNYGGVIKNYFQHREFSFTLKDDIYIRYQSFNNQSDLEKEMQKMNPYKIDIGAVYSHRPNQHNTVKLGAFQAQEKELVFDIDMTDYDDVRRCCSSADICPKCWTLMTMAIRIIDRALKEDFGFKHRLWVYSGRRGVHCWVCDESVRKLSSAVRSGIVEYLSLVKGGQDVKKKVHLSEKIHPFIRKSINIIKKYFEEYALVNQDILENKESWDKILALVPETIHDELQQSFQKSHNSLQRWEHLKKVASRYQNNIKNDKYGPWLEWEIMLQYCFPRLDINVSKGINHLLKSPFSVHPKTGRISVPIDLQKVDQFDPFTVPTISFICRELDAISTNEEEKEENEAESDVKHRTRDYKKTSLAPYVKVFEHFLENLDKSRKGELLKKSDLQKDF
T1 sequence (P49643 whole entry partner): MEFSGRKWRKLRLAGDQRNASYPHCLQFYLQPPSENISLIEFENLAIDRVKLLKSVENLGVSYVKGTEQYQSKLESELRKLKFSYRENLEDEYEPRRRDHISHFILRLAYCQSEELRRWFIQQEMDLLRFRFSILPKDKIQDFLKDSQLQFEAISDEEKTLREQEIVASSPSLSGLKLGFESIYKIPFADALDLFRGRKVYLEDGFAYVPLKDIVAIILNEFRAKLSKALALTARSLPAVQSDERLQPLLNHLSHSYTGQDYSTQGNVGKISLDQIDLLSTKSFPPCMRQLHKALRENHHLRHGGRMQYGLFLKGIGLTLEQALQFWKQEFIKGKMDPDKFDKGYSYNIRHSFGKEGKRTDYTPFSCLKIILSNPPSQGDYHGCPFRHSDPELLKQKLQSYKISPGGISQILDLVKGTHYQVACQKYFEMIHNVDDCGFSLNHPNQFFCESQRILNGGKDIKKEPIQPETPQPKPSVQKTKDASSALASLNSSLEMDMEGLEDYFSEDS

Row | SMILES | Ki/Km ratio (DNA polymerase α; Km of dGTP) | Ki (DNA polymerase α; competitive with [3H]dGTP) | IC50 (DNA polymerase α) | IC50 (DNA polymerase γ) | Ki/Km ratio (HSV DNA polymerase; Km of dGTP) | Ki (HSV DNA polymerase; competitive with [3H]dGTP) | IC50 (HSV DNA polymerase) | IC50 (DNA polymerase β)
1 | Nc1nc2c(ncn2[C@@H]2C[C@H](COP(=O)(O)OP(=O)(O)OP(=O)(O)O)[C@@H](O)C2)c(=O)[nH]1 [D-2'CdG-TP] | approximately 1 | 950 nM | 2 µM | 300 µM | approximately 1 | 350 nM | 1.5 µM | 
2 | Nc1nc2c(ncn2[C@H]2C[C@@H](COP(=O)(O)OP(=O)(O)OP(=O)(O)O)[C@H](O)C2)c(=O)[nH]1 [L-2'CdG-TP] |  |  | 470 µM | 215 µM |  |  | 460 µM | 1.4 mM
